Patent publication US10266548B2, “Substituted benzylindazoles for use as Bub1 kinase inhibitors in the treatment of hyperproliferative diseases” (Bayer Intellectual Property GmbH, priority 2011, dated 2019)
Counter-ions that a name gives are not always drawn. Like-named read-outs stand apart in the source and are kept apart here.

Legend:
[1] = test system: DU145 cells; test: Proliferation assay (DU145 cell line); type: cell-based; details: read-out: Biological Assay 2: Proliferation assay (DU145 cell line) median IC50
Experimental: (§1) Cultivated tumor cells (cells were ordered from ATCC, except HeLa-MaTu and HeLa-MaTu-ADR, which were ordered from EPO-GmbH, Berlin) were plated at a density of 1000 to 5000 cells/well, depending on the growth rate of the respective cell line, in a 96-well multititer plate in 200 μL of their respective growth medium supplemented 10% fetal calf serum. After 24 hours, the cells of one plate (zero-point plate) were stained with crystal violet (see below), while the medium of the other plates was replaced by fresh culture medium (200 μl), to which the test substances were added in various concentrations (0 μM, as well as in the range of 0.001-10 μM; the final concentration of the solvent dimethyl sulfoxide was 0.5%). The cells were incubated for 4 days in the presence of test substances. Cell proliferation was determined by staining the cells with crystal violet: the cells were fixed by adding 20 μl/measuring point of an 11% glutaric aldehyde solution for 15 minutes at room temperature. After three washing cycles of the fixed cells with water, the plates were dried at room temperature. The cells were stained by adding 100 μl/measuring point of a 0.1% crystal violet solution (pH 3.0). After three washing cycles of the stained cells with water, the plates were dried at room temperature. The dye was dissolved by adding 100 μl/measuring point of a 10% acetic acid solution. […] The change of cell number, in percent, was calculated by normalization of the measured values to the aborbtion values of the zero-point plate (=0%) and the absorbtion of the untreated (0 μm) cells (=100%). The IC50 values were determined by means of a 4 parameter fit using the company's own software.

[2] = target: catalytic domain of human Bub1 (amino acids 704-1085) (Homo sapiens (Human), UniProt O43683); test: Bub1 kinase assay (TR-FRET); type: biochemical; details: 10 μM ATP, 1 μM peptide substrate; read-out: Biological Assay 1: Bub1 kinase assay median IC50
Sequence of catalytic domain of human Bub1 (amino acids 704-1085) (O43683 704-1085): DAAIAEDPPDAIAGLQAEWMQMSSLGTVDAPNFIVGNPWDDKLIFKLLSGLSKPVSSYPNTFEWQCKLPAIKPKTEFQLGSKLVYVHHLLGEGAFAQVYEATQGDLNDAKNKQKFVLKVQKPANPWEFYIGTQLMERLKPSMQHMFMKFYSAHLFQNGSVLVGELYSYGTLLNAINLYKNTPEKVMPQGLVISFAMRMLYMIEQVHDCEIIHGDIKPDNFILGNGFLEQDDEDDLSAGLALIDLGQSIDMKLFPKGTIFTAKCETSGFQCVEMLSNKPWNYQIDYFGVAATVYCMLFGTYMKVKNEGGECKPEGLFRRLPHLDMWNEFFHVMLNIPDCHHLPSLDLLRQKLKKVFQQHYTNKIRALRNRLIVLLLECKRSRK
Method in brief: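 Phosphoserine product detected by TR-FRET (Eu-labeled anti-mouse IgG/anti-phosphoserine antibody to streptavidin-XL665) after 1 h at 22 °C. IC50 from 4-parameter logistic fit.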

[3] = test system: Caco2 cells; test: Proliferation assay (Caco2 cell line); type: cell-based; details: read-out: Biological Assay 2: Proliferation assay (Caco2 cell line) median IC50
Experimental: as §1

[4] = test system: NCI-H460 cells; test: Proliferation assay (H460 cell line); type: cell-based; details: read-out: Biological Assay 2: Proliferation assay (H460 cell line) median IC50
Experimental: as §1

[5] = test system: HeLa-MaTu-ADR cells; test: Proliferation assay (HeLa-MaTu-ADR cell line); type: cell-based; details: read-out: Biological Assay 2: Proliferation assay (HeLa-MaTu-ADR cell line) median IC50
Experimental: as §1

[6] = test system: B16F10 cells; test: Proliferation assay (B16F10 cell line); type: cell-based; details: read-out: Biological Assay 2: Proliferation assay (B16F10 cell line) median IC50
Experimental: as §1

[7] = test system: HeLa cells; test: Proliferation assay (HeLa cell line); type: cell-based; details: Homo sapiens, 96 h, read-out: Biological Assay 2: Proliferation assay (HeLa cell line) median IC50
[8] = Homo sapiens, DU-145, 96 h, DU145, 4 days, crystal violet
[9] = Homo sapiens, Caco-2, 96 h, Caco2, 4 days, crystal violet
[10] = Homo sapiens, NCI-H460, 96 h, H460, 4 days, crystal violet
[11] = 96 h, HeLa-MaTu-ADR, 4 days, crystal violet
[12] = Mus musculus, B16-F10, 96 h, B16F10, 4 days, crystal violet

Row | IC50 [1, 8] | IC50 [3, 9] | IC50 [4, 10] | IC50 [5, 11] | IC50 [6, 12] | IC50 ([7]; 4 days, crystal violet) | IC50 ([1]; DU145, 4 days, crystal violet) | IC50 ([3]; Caco2, 4 days, crystal violet) | IC50 ([4]; H460, 4 days, crystal violet) | IC50 ([5]; HeLa-MaTu-ADR, 4 days, crystal violet) | IC50 ([6]; B16F10, 4 days, crystal violet) | SMILES | IC50 ([1]; Homo sapiens, DU-145, 96 h) | IC50 [2] | IC50 ([3]; Homo sapiens, Caco-2, 96 h) | IC50 ([4]; Homo sapiens, NCI-H460, 96 h) | IC50 ([5]; 96 h) | IC50 ([6]; Mus musculus, B16-F10, 96 h) | IC50 [7]
1 | – | – | – | – | – | – | – | – | – | – | – | COc1cnc(-c2nn(Cc3c(Cl)cc(OC(F)(F)F)cc3Cl)c3ccccc23)nc1Nc1ccncc1 [Example 2-26-1, 2-{1-[2,6-dichloro-4-(trifluoromethoxy)benzyl]-1H-indazol-3-yl}-5-methoxy-N-(pyridin-4-yl)pyrimidin-4-amine] | 0.53 µM | 0.016 µM | 0.38 µM | 1 µM | 0.39 µM | 0.42 µM | 0.56 µM
2 | 5.3 µM | 2.4 µM | 8.5 µM | 2.3 µM | 1.3 µM | 4.2 µM | – | – | – | – | – | COc1cnc(-c2nn(Cc3ccc4c(C)cc(=O)oc4c3)c3ccccc23)nc1Nc1ccncc1 [Example 2-32-1, 7-({3-[5-methoxy-4-(pyridin-4-ylamino)pyrimidin-2-yl]-1H-indazol-1-yl}methyl)-4-methyl-2H-chromen-2-one] | – | 0.029 µM | – | – | – | – | –
3 | 2.6 µM | 3.4 µM | 6.6 µM | 1.2 µM | 1.2 µM | 1.6 µM | – | – | – | – | – | COc1cnc(-c2nn(Cc3c(Cl)ccc(C(F)(F)F)c3Cl)c3ccccc23)nc1Nc1ccncc1 [Example 2-34-1, 2-{1-(2,6-dichloro-3-(trifluoromethyl)benzyl]-1H-indazol-3-yl}-5-methoxy-N-(pyridin-4-yl)pyrimidin-4-amine] | – | 0.038 µM | – | – | – | – | –
4 | – | – | – | – | – | – | – | – | – | – | – | COc1cnc(-c2nn(Cc3c(F)cc(C#N)cc3F)c3ccccc23)nc1Nc1ccncc1 [Example 2-46-1, 3,5-difluoro-4-({3-[5-methoxy-4-(pyridin-4-ylamino)pyrimidin-2-yl]-1H-indazol-1-yl}methyl)benzonitrile] | 0.85 µM | 0.016 µM | 0.9 µM | 0.88 µM | 0.38 µM | 0.71 µM | 1.4 µM
5 | – | – | – | – | – | – | – | – | – | – | – | OCC1(COc2cnc(-c3nn(Cc4ccccc4F)c4ccccc34)nc2Nc2ccncc2)COC1 [Example 4-2-1, {3[({2-[1-(2-fluorobenzyl)-1H-indazol-3-yl]-4-(pyridin-4-ylamino)pyrimidin-5-yl}oxy)methyl]oxetan-3-yl}methanol] | 10 µM | 0.0033 µM | 9.9 µM | 6.5 µM | 5.8 µM | 3.7 µM | 8.7 µM
6 | 4.5 µM | 0.9 µM | 3.5 µM | 1.2 µM | 0.5 µM | 3.4 µM | – | – | – | – | – | CN(C)CCOc1cnc(-c2nn(Cc3ccccc3F)c3ccccc23)nc1Nc1ccncc1 [Example 4-4, 5-[2-(dimethyl-amino)ethoxy]-2-[1-(2-fluorobenzyl)-1H-indazol-3-yl] N-(pyridin-4-yl)pyrimidin-4-amine] | – | 0.014 µM | – | – | – | – | –
7 | – | – | – | – | – | – | – | – | – | – | – | CCOc1cc(F)c(Cn2nc(-c3ncc(OCCN(C)C)c(Nc4ccncc4)n3)c3ccccc32)c(F)c1 [Example 4-8, 5-[2-(dimethyl-amino)ethoxy]-2-[1-(4-ethoxy-2,6-difluorobenzyl)-1H-indazol-3-yl]-N-(pyridin-4~ yl)pyrimidin-4-amine] | 1.2 µM | 0.008 µM | 0.76 µM | 1.1 µM | 0.36 µM | 0.57 µM | 1.3 µM
8 | – | – | – | – | – | – | – | – | – | – | – | CCOc1cc(F)c(Cn2nc(-c3ncc(OCC(O)CN4CCCCC4)c(Nc4ccncc4)n3)c3ccccc32)c(F)c1 (stereo not shown) [Example 4-9, 1-({2-[1-(4-ethoxy-2,6-difluorobenzyl)-1H-indazol-3-yl]-4-(pyridin-4-ylamino)pyrimidin-5-yl}oxy)-3-(piperidin-1-yl)propan-2-ol] | 1.3 µM | 0.0054 µM | 0.78 µM | 1.3 µM | 0.86 µM | 0.53 µM | 1.7 µM
9 | – | – | – | – | – | – | – | – | – | – | – | CCOc1cc(F)c(Cn2nc(-c3ncc(OC[C@H]4CCC(=O)N4)c(Nc4ccncc4)n3)c3ccccc32)c(F)c1 [Example 4-19, (5R)-5-[({2-[1-(4-ethoxy-2,6-difluorobenzyl)-1H-indazol-3-yl]-4-(pyridin-4-ylamino)pyrimidin-5-yl}oxy)methyl] pyrrolidin-2-one] | 2.3 µM | 0.01 µM | 10 µM | 2.2 µM | 10 µM | 0.53 µM | 1.2 µM
10 | – | – | – | – | – | – | – | – | – | – | – | CCOc1cc(F)c(Cn2nc(-c3ncc(OC[C@@H]4CCC(=O)N4)c(Nc4ccncc4)n3)c3ccccc32)c(F)c1 [Example 4-22, (5S)-5-[({2-[1-(4-ethoxy-2,6-difluorobenzyl)-1H-indazol-3-yl]-4-(pyridin-4-ylamino)pyrimidin-5-yl}oxy)methyl] pyrrolidin-2-one] | 3.6 µM | 0.0058 µM | 9.5 µM | 2.1 µM | 10 µM | 1.2 µM | 1.9 µM
11 | – | – | – | – | – | – | – | – | – | – | – | COc1ccc(Cn2nc(-c3nccc(Nc4ccncc4)n3)c3ccccc32)cc1 [Example 5-2, 2-[1-(4-methoxybenzyl)-1H-indazol-3-yl]-N-(pyridin-4-yl)pyrimidin-4-amine] | 3 µM | 0.027 µM | 3 µM | 3 µM | 3 µM | 3 µM | 0.71 µM
12 | – | – | – | – | – | – | – | – | – | – | – | C/C=C/c1cc(F)c(Cn2nc(-c3ncc(OC)c(Nc4ccncc4)n3)c3ccccc32)c(F)c1 [Example 6-2, 2-(1-{2,6-difluoro-4-[(1E)-prop-1-en-1-yl]benzyl}-1H-indazol-3-yl)-5-methoxy-N-(pyridin-4-yl)pyrimidin-4-amine] | 1.4 µM | 0.0074 µM | 1.2 µM | 1.7 µM | 1.6 µM | 1.1 µM | 1.4 µM
13 | 1.4 µM | 1.1 µM | 1.5 µM | 0.59 µM | 0.9 µM | 1.7 µM | – | – | – | – | – | CCOc1cc(F)c(Cn2nc(-c3ncc(OC(F)F)c(N(c4ccncc4)C(F)F)n3)c3ccccc32)c(F)c1 [Example 10-2] | – | 0.42 µM | – | – | – | – | –
14 | – | – | – | – | – | – | – | – | – | – | – | OCC(O)COc1cnc(-c2nn(Cc3ccccc3F)c3ccccc23)nc1Nc1ccncc1 (stereo not shown) [Example 12-1, 3-({2-[1-(2-fluorobenzyl)-1H-indazol-3-yl]-4-(pyridin-4-ylamino)-pyrimidin-5-yl}oxy)propane-1,2-diol] | 10 µM | 0.011 µM | 10 µM | 10 µM | 10 µM | 10 µM | ≥ 10 µM
15 | 1.6 µM | 1.2 µM | 1.3 µM | 1.3 µM | 0.79 µM | 1.5 µM | – | – | – | – | – | CCOc1cc(F)c(Cn2nc(-c3ncc(OCCO)c(Nc4ccncc4)n3)c3ccccc32)c(F)c1 [Example 13-1, 2-({2-[1-(4-ethoxy-2,6-difluorobenzyl)-1H-indazol-3-yl]-4-(pyridin-4-ylamino)pyrimidin-5-yl}oxy)ethanol] | – | 0.0033 µM | – | – | – | – | –
16 | – | – | – | – | – | 1.4 µM | 1.2 µM | 1.2 µM | 2.2 µM | 1.2 µM | 0.76 µM | CCOc1cc(F)c(Cn2nc(-c3ncc(OC)c(Nc4ccncc4)n3)c3ccccc32)c(F)c1 [Example 15-1, 2-[1-(4-ethoxy-2,6-difluorobenzyl)-1H-indazol-3-yl]-5-methoxy-N-(pyridin-4-yl)pyrimidin-4-amine hydrochloride (1:1)] | – | 0.0052 µM | – | – | – | – | –
